From patent US11524944B2, “2-phenylpyrimidine-4-carboxamides as AHR inhibitors” (Bayer Aktiengesellschaft, priority 2017, dated 2022)

biological target: T1, Human AhR (Homo sapiens, UniProt P35869); assay: Transactivation assay in human cell line (in vitro assay 1): antagonism; assay type: cell-based; details: U87 glioblastoma cells, AHR inducible firefly luciferase reporter (DRE), 150 μM kynurenic acid, 20 hours
T1 construct: host or cells: U87 glioblastoma cells, stably transfected with a DRE firefly luciferase reporter and a constitutive renilla reporter
T1 sequence (P35869 11-848): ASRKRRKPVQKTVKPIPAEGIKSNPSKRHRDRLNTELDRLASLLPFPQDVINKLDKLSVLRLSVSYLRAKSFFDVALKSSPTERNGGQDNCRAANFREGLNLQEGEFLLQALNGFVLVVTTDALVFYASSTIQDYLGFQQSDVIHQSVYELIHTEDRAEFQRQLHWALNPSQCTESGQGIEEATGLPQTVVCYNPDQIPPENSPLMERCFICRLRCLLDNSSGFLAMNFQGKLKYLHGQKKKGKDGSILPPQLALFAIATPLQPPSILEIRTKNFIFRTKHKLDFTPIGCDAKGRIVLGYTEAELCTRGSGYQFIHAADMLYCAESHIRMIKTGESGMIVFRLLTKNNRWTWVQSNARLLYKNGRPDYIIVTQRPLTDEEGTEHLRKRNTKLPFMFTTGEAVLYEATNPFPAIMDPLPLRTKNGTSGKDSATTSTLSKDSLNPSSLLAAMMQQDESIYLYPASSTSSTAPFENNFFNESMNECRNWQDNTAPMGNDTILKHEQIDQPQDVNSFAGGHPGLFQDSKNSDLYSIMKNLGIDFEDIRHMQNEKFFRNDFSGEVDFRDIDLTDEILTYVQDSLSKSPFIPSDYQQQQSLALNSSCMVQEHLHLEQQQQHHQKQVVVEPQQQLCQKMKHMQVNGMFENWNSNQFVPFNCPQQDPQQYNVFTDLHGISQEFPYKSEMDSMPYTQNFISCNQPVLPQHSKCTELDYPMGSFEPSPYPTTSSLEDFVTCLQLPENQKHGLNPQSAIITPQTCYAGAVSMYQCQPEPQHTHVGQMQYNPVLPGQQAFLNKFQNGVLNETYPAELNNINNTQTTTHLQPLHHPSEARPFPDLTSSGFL
Method: Examples were tested in selected biological assays one or more times. When tested more than once, data are reported as either average values or as median values, wherein • the average value, also referred to as the arithmetic mean value, represents the sum of the values obtained divided by the number of times tested, and • the median value represents the middle number of the group of values when ranked in ascending or descending order. If the number of values in the data set is odd, the median is the middle value. If the number of values in the data set is even, the median is the arithmetic mean of the two middle values.
Transactivation Assay in Human Cell Line (In Vitro Assay 1)
Transactivation assay was carried out in U87 glioblastoma cells (ATCC) endogenously expressing AHR. In addition the cells were stably transfected with an AHR inducible firefly luciferase reporter gene construct that carried AHR-binding sites (DRE) in its promoter and a renilla reporter gene construct with constitutively active promoter. Kynurenic acid is an endogenous AHR activating ligand and was used to prestimulate test cells prior to testing the antagonistic properties of compounds.
In Vitro Assay 1: Antagonism in Human Cell Line
Firefly luciferase and Renilla activity was determined by the DualGlo Luciferase Assay System (Promega, #2920). Renilla activity was used to assess toxic effects of compounds.

SMILES | IC50
CC(C)(O)CNC(=O)c1cc(-c2ccc(Cl)cc2)nc(-c2ccc(F)c(C#N)c2)n1 [Example 52, 6-(4-chlorophenyl)-2-(3-cyano-4-fluorophenyl)-N-(2-hydroxy-2-methylpropyl)pyrimidine-4-carboxamide] | 112 nM
C[C@@H](CO)NC(=O)c1cc(-c2ccc(OC(F)(F)F)cc2)nc(-c2ccc(F)c(C#N)c2)n1 [Example 35, 2-(3-cyano-4-fluorophenyl)-N-[(2S)-1-hydroxypropan-2-yl]-6-[4-(trifluoromethoxy)phenyl]pyrimidine-4-carboxamide] | 78.3 nM
C[C@@H](CO)NC(=O)c1cc(-c2ccc(Cl)cc2)nc(-c2cc(F)cc(C(F)(F)F)c2)n1 [Example 75, 6-(4-chlorophenyl)-2-[3-fluoro-5-(trifluoromethyl)phenyl]-N-[(2S)-1-hydroxypropan-2-yl]pyrimidine-4-carboxamide] | 97.8 nM
C[C@@H](CO)NC(=O)c1cc(-c2ccc(OC(F)(F)F)cc2)nc(-c2ccc(Cl)c(Cl)c2)n1 [Example 38, 2-(3,4-dichlorophenyl)-N-[(2S)-1-hydroxypropan-2-yl]-6-[4-(trifluoromethoxy)phenyl]pyrimidine-4-carboxamide] | 4350 nM
C[C@@H](CO)NC(=O)c1cc(-c2ccc(OC(F)(F)F)cc2)nc(-c2cc(Cl)cc(Cl)c2)n1 [Example 34, 2-(3,5-dichlorophenyl)-N-[(2S)-1-hydroxypropan-2-yl]-6-[4-(trifluoromethoxy)phenyl]pyrimidine-4-carboxamide] | 170 nM
CC(C)(O)CNC(=O)c1cc(-c2ccc(Cl)cc2)nc(-c2ccc(Cl)cc2)n1 [Example 46, 2,6-bis(4-chlorophenyl)-N-(2-hydroxy-2-methylpropyl)pyrimidine-4-carboxamide] | 9790 nM
C[C@@H](CO)NC(=O)c1cc(-c2ccc(Cl)cc2)nc(-c2ccc(F)c(C#N)c2)n1 [Example 68, 6-(4-chlorophenyl)-2-(3-cyano-4-fluorophenyl)-N-[(2S)-1-hydroxypropan-2-yl]pyrimidine-4-carboxamide] | 102 nM
CC(C)(O)CNC(=O)c1cc(-c2ccc(OC(F)(F)F)cc2)nc(-c2ccc(F)cc2)n1 [Example 13, 2-(4-fluorophenyl)-N-(2-hydroxy-2-methylpropyl)-6-[4-(trifluoromethoxy)phenyl]pyrimidine-4-carboxamide] | 26 nM
C[C@@H](CO)NC(=O)c1cc(-c2ccc(OC(F)(F)F)cc2)nc(-c2cc(F)cc(C#N)c2)n1 [Example 43, 2-(3-cyano-5-fluorophenyl)-N-[(2S)-1-hydroxypropan-2-yl]-6-[4-(trifluoromethoxy)phenyl]pyrimidine-4-carboxamide] | 21.5 nM
CC(C)(O)CNC(=O)c1cc(-c2ccc(OC(F)(F)F)cc2)nc(-c2ccc(C(F)F)cc2)n1 [Example 25, 2-[4-(difluoromethyl)phenyl]-N-(2-hydroxy-2-methylpropyl)-6-[4-(trifluoromethoxy)phenyl]pyrimidine-4-carboxamide] | > 20000 nM
CC(C)(O)CNC(=O)c1cc(-c2ccc(Cl)cc2)nc(-c2cccc(F)c2)n1 [Example 1, 6-(4-Chlorophenyl)-2-(3-fluorophenyl)-N-(2-hydroxy-2-methylpropyl)pyrimidine-4-carboxamide] | > 20000 nM
CC(C)(O)CNC(=O)c1cc(-c2ccc(Cl)cc2)nc(-c2cc(F)cc(C(F)(F)F)c2)n1 [Example 58, 6-(4-chlorophenyl)-2-[3-fluoro-5-(trifluoromethyl)phenyl]-N-(2-hydroxy-2-methylpropyl)pyrimidine-4-carboxamide] | 77.6 nM
CC(O)C(NC(=O)c1cc(-c2ccc(OC(F)(F)F)cc2)nc(-c2cccc(F)c2)n1)C(F)(F)F (stereo not shown) [Example 91, 2-(3-fluorophenyl)-N-(1,1,1-trifluoro-3-hydroxybutan-2-yl)-6-[4-(trifluoromethoxy)phenyl]pyrimidine-4-carboxamide] | > 20000 nM
Cc1cc(F)cc(-c2nc(C(=O)N[C@@H](C)CO)cc(-c3ccc(Cl)cc3)n2)c1 [Example 77, 6-(4-chlorophenyl)-2-(3-fluoro-5-methylphenyl)-N-[(2S)-1-hydroxypropan-2-yl]pyrimidine-4-carboxamide] | 26.4 nM
COc1ccc(-c2nc(C(=O)NCC(C)(C)O)cc(-c3ccc(Cl)cc3)n2)cc1 [Example 47, 6-(4-chlorophenyl)-N-(2-hydroxy-2-methylpropyl)-2-(4-methoxyphenyl)pyrimidine-4-carboxamide] | 2220 nM
C[C@@H](CO)NC(=O)c1cc(-c2ccc(Cl)cc2)nc(-c2ccc(Cl)c(Cl)c2)n1 [Example 72, 6-(4-chlorophenyl)-2-(3,4-dichlorophenyl)-N-[(2S)-1-hydroxypropan-2-yl]pyrimidine-4-carboxamide] | 361 nM
COc1ccc(-c2nc(C(=O)N[C@@H](C)CO)cc(-c3ccc(OC(F)(F)F)cc3)n2)cc1 [Example 30, N-[(2S)-1-hydroxypropan-2-yl]-2-(4-methoxyphenyl)-6-[4-(trifluoromethoxy)phenyl]pyrimidine-4-carboxamide] | 730 nM
CC(C)(O)CNC(=O)c1cc(-c2ccc(Cl)cc2)nc(-c2cc(F)cc(C#N)c2)n1 [Example 62, 6-(4-chlorophenyl)-2-(3-cyano-5-fluorophenyl)-N-(2-hydroxy-2-methylpropyl)pyrimidine-4-carboxamide] | 57.8 nM
CC(C)(O)CNC(=O)c1cc(-c2ccc(Cl)cc2)nc(-c2ccc(Br)cc2)n1 [Example 44, 2-(4-bromophenyl)-6-(4-chlorophenyl)-N-(2-hydroxy-2-methylpropyl)pyrimidine-4-carboxamide] | > 20000 nM
C[C@@H](CO)NC(=O)c1cc(-c2ccc(Cl)cc2)nc(-c2ccc(OC(F)(F)F)cc2)n1 [Example 73, 6-(4-chlorophenyl)-N-[(2S)-1-hydroxypropan-2-yl]-2-[4-(trifluoromethoxy)phenyl]pyrimidine-4-carboxamide] | 9720 nM
CC(C)(O)CNC(=O)c1cc(-c2ccc(OC(F)(F)F)cc2)nc(-c2cc(F)cc(C#N)c2)n1 [Example 26, 2-(3-cyano-5-fluorophenyl)-N-(2-hydroxy-2-methylpropyl)-6-[4-(trifluoromethoxy)phenyl]pyrimidine-4-carboxamide] | 40.2 nM
C[C@@H](CO)NC(=O)c1cc(-c2ccc(Cl)cc2)nc(-c2cc(Cl)cc(Cl)c2)n1 [Example 67, 6-(4-chlorophenyl)-2-(3,5-dichlorophenyl)-N-[(2S)-1-hydroxypropan-2-yl]pyrimidine-4-carboxamide] | 101 nM
